In patent US20060025406A1, “Modulators of hepatocyte growth factor/c- Met activity” (Angion Biomedica Corporation, priority 2004, published 2006):

Assays:
[1] = tested on: A549 human lung carcinoma cells; test: MTT assay, cell viability; type: cell-based; conditions: 72 hours continuous exposure
Procedure: To investigate the effect of c-Met antagonist compound A on inhibiting the growth of A549 human lung carcinoma cells in vitro, an MTT assay was carried out to determine cell viability. Cells were plated in 96-well plates at 5000 cells/well in complete medium, in the absence of drug. After 24 hours to allow for cell attachment, cells were incubated for 72 hours with the tested compounds (5 different concentrations) or vehicle. Cells were then exposed to MTT for 4 hours, and absorbance was measured at a wavelength of […].

HUVEC cells = test: HGF/SF-induced HUVEC cell proliferation ([3H]-thymidine incorporation); type: cell-based, human; conditions: HGF/SF 25 ng/ml, overnight, FIG. 1A
Procedure: Compounds of the invention were tested for HGF/SF inhibitory activity in HGF/SF-induced HUVEC cell proliferation in vitro. Briefly, HUVEC cells were seeded into 48-well plates and serum starved for 2 hours in medium containing 1% BSA, and then treated with test compounds in multiple concentrations in the presence or absence of HGF/SF (25 ng/ml, R&D Systems) overnight. This experiment also included negative (vehicle alone) and positive (HGF/SF alone) controls. Cell proliferation was measured by the incorporation of [^3H]-thymidine and counted using Beta scintillation counter.

[2] = tested on: A549 human lung carcinoma cells; test: A549 subcutaneous xenograft; type: in vivo, Balb C nude mice; conditions: 5 mg/kg i.p. daily for 3 weeks
Procedure: To investigate the effect of c-Met antagonist compound A on inhibiting the growth of A549 human lung carcinoma cells in vivo, 2×10^6 cells of A549 were injected subcutaneously into the right hind flank of male Balb C nude mice. Tumors were allowed to develop for 12 days and then animals were treated with compound A at 5 mg/kg i.p. daily for 3 weeks. Tumor size measurements were made twice weekly and volumes calculated ((length×width^2)/2 (mm^3)) Final weight of excised tumors was measured at the end of the 3-week treatment period (0.78 g for control vs. 0.05 g for compound A treated).

Structure (SMILES)	IC50 [1] [nM]	inhibition of HGF/SF stimulation of endothelial cell proliferation (HUVEC cells)	tumor volume and weight [2]	final weight of excised tumors ([2]; control 0.78 g) [g]
OCc1ccccc1Sc1ccccc1CNc1nc(NC2CCCC2)c2ccccc2n1 [compound A]	2900	inhibited HGF/SF stimulation of endothelial cell proliferation	significantly reduced tumor volume and weight	0.05
CC(C)=CC1C(CNc2nc(Nc3ccccc3C(C)C)c3ccccc3n2)C1(C)C (centres unmarked) [B]		inhibited HGF/SF stimulation of endothelial cell proliferation		
